Test results taken from patent EP0222578A2, “Use of cyclic somatostatin analogues in the treatment of immediate hypersensitivity diseases” (Merck & Co., Inc., priority 1985, dated 1987).

Columns and labels:
[1] = system: Antigen-Induced Dyspnea in Inbred Rats; assay: Antigen-induced dyspnea in sensitized inbred asthmatic rats challenged with aerosolized egg albumin; assay type: in vivo; settings: for Duration of Dyspnea in Minutes (Mean±S.D.) n=6/group: 1 mg/kg s.c. 1 hour before antigen challenge; for Inhibition %: inhibition of duration of dyspnea vs vehicle control, 1 mg/kg s.c. 1 hour
Excerpt: Sensitized inbred "asthmatic rats" challenged with aerosolized antigen respond with symptoms of continuous dyspnea which is partly mediated by serotonin. […] These rats differed from normal rats in that they have nonspecific bronchial hyperreactivity to a number of bronchoconstrictor agents (Brunet et al., J. Immun., 131, 434-438 (1983)].
• (1) Animals: Rats were obtained from an inbred line of asthmatic rats that were developed and maintained in local laboratories and later at a local farm. Male and female rats were used between 10-12 weeks of age. Their weights ranged from 220-240 gm (females) and 350-400 gm (males). Rats were matched by sex and littermates between the various treatment groups. • (2) Materials: Egg albumin (EA), grade V, crystallized and lyophilized (Sigma Chemical Co., St. Louis), aluminum hydroxide (Reheis Chemical Company, Chicago), and methysergide bimaleate (Sandoz Ltd., Basel, Switzerland). • (3) Apparatus: The challenge and subsequent respiratory recordings were carried out in a clear plastic box with internal dimensions 10 x 6 x 4 inches. The top of the box was removable; in use, it was held firmly in place by four clamps and an airtight seal was maintained by a soft rubber gasket. Through the centre of each end of the chamber a Devilbiss nebulizer (No. 40) was inserted via an airtight seal and each end of the box was also equipped with an outlet. A Fleisch No. 0000 pneumotachograph was inserted into one end of the box and coupled to a Grass volumetric pressure transducer (PT5-A) which was then connected to a Beckman Type R Dynograph through appropriate couplers. While aerosolizing the antigen, the outlets were open and the pneumotachograph was isolated from the chamber. The outlets were closed and the pneumotachograph and the chamber were connected during the recordings of the respiratory patterns. For challenge, 2 ml of 3% solution of antigen in saline was placed into each nebulizer and the aerosol was generated with air from a small Potter diaphragm pump operating at 10 psi and a flow of 8 litre/minute. • (4) Procedure: Rats were sensitized by injecting (s.c.) 1 ml of suspension containing 1 mg egg albumin (EA) and 200 mg aluminum hydroxide in saline. They were used on day 13 post sensitization. Rats were exposed to aerosol of 3% EA in saline for exatly 1 minute, then their respiratory profiles were recorded for an additional 30 minutes. The duration of continuous dyspnea was measured from the respiratory recordings.
Form.I-8) was administered subcutaneously as a solution in 5% mannitol 1 hour prior to challenge with antigen. Methysergide bimaleate was dissolved in saline and given intravenously at dose of 3 ug/kg 5 minutes before challenge. Dose volume employed for subcutaneous treatments was 2 ml/kg and for i.v. treatments 1 ml/kg. Control groups of rats (n-6) were treated subcutaneously with drug vehicle (5% mannitol).
The sensitivity of various drug treatments were determined in terms of the decrease in duration of dyspnea in comparison with a group of vehicle- treated controls. Comparisons between groups were made using the Student's t-test.

[2] = system: Antigen-Induced Dyspnea in Inbred Rats; settings: 3 µg/kg i.v. before challenge; background statement in the introduction; cited from earlier work

Row | SMILES | Duration of Dyspnea in Minutes (Mean±S.D.) n=6/group ([1]; + Methysergide (3 µg/kg i.v. 5 minutes prior to challenge)) [min] | Duration of Dyspnea in Minutes (Mean±S.D.) n=6/group ([1]; - Methysergide) [min] | activity on duration of antigen-induced dyspnea ([1]; 1 mg/kg s.c., without methysergide to block the serotonin component) | Inhibition % ([1]; + Methysergide (3 µg/kg i.v. 5 minutes prior to challenge), p < 0.01) [p < 0.01%] | Inhibition % ([1]; + Methysergide (3 µg/kg i.v. 5 minutes prior to challenge); p < 0.01; listed as Form.1-8)) [%] | Inhibition % ([1]; - Methysergide) [%] | serotonin component of continuous dyspnea [2]
1 | CC(C)[C@@H]1NC(=O)[C@H](CCCCN)NC(=O)[C@@H](Cc2c[nH]c3ccccc23)NC(=O)[C@H](Cc2ccc(O)cc2)NC(=O)[C@H](C)N(C)C(=O)[C@H](Cc2ccccc2)NC1=O [Form.I-8), Cycle-(N-Me-Ala-Tyr-D-Trp-Lys-Val-Phe)] | 5.7 ± 3.9 | 18.2 ± 3.6 | failed to produce activity | 57 | 57 | 0 | 
2 | CC[C@@H](CO)NC(=O)[C@@H]1C=C2c3cccc4c3c(cn4C)C[C@H]2N(C)C1 [methysergide, methysergide bimaleate] |  |  |  |  |  |  | completely blocked
